Assay results as given in US20220395528A1, “AGENT FOR PREVENTING OR TREATING […] DEVICE FOR PREVENTING OR TREATING ARRHYTHMIA” (SCHOOL JURIDICAL PERSON THE KITASATO INSTITUTE, priority 2019, published 2022).

Tests used:
Pigs = assay: Number of arrhythmias on electrocardiogram in pigs after balloon occlusion of the anterior descending branch of the left coronary artery, gas inhalation (Experiment Example 1); assay type: in vivo; conditions: coronary blood flow interrupted, counted for 10 minutes of inhalation versus the preceding 10 minutes, FIG. 3
Method: Pigs were anesthetized with pentobarbital, and electrocardiogram measurement was performed. After tracheal intubation, an artificial respirator was connected, and respiratory management was performed. A catheter was inserted into the descending aorta from the inguinal region, a balloon was placed in the anterior descending branch of the left coronary artery, and the balloon was inflated to interrupt the blood flow. After 40 minutes, an electrocardiogram was measured without doing anything for 10 minutes, the number of arrhythmias was counted, and after that, for 10 minutes, the number of arrhythmias was counted in the same manner for a control group, a hydrogen inhalation group, a nitric oxide inhalation group, or a combination group (hydrogen and nitric oxide inhalation group) in a divided manner.
A gas inhaled by the control group was a mixed gas (oxygen concentration of 35%) of oxygen and nitrogen and containing no hydrogen or nitric oxide.

[1] = high-concentration hydrogen inhaled, gaseous hydrogen used as a gas for diving; cited from earlier work

Row | Structure (SMILES) | number of arrhythmias (Pigs; mixed gas of air and nitric oxide, nitric oxide concentration 80 ppm) | number of arrhythmias (Pigs; mixed gas of air and hydrogen, hydrogen concentration 1.3%) | side effects [1]
1 | [N]=O [nitric oxide, reference compound] | increase |  | 
2 | [HH] [hydrogen] |  | decreased | no side effects
